{"source": "patent EP0225522A1", "about": "“Imidazopyridazine alkene carboxamides, process for their preparation, intermediate products and their preparation” (BAYER AG, priority 1985, dated 1987)", "tested_on": "männliche Ratten", "test": "Diuretic and saluretic effect in fasted male rats: urine and electrolyte excretion over 6 hours in metabolism cages", "assay_type": "in vivo, Ratten (SPF", "details": "100 mg/kg p.o. in 10 ml/kg Tylose-Suspension, excretion over 6 Stunden, fasted male Wistar rats; for K^+ / Na^+: flame photometer", "procedure": "Die pharmakologische Wirkung der erfindungsgemäßen Verbindungen wurden nach folgender Testmethode ermittelt: Nüchterne männliche Ratten im Gewicht von 150 bis 250 g (SPF, Wistar, je n=4 Paare) werden mit 10 ml/kg p.o. Tylose-Suspension (0,5 X) als Kontrollen bzw. mit 100 mg/kg p.o. Prüfsubstanz in 10 ml/kg p.o. Tylose-Suspension mittels Schlundsonde behandelt. Die Tiere werden in Stoffwechselkäfige gebracht und die Harn- und Elektrolytauscheidung über 6 Stunden bestimmt (Na^4 und K^4 Bestimmung: IL-Flammenphotometer)."}
{"smiles": "Cc1ccc2nc(-c3ccccc3)c(/C=C/C(=O)N3CCCCC3)n2n1", "note": "[Beispiel 14]", "values": [{"measurement": "Harn", "value": 25, "unit": "mL/kg"}, {"measurement": "K^+", "value": 900, "unit": "µmol/kg"}, {"measurement": "Na^+", "value": 2900, "unit": "µmol/kg"}]}
{"smiles": "CN1CCN(c2ccc3nc(-c4ccccc4)c(/C=C/C(=O)N4CCCCC4)n3n2)CC1", "note": "[Beispiel 33]", "values": [{"measurement": "Harn", "value": 26, "unit": "mL/kg"}, {"measurement": "K^+", "value": 450, "unit": "µmol/kg"}, {"measurement": "Na^+", "value": 3400, "unit": "µmol/kg"}]}
{"smiles": "CCN(CC)C(=O)/C=C/c1c(-c2ccccc2)nc2ccc(N3CCN(C)CC3)nn12", "note": "[Beispiel 35]", "values": [{"measurement": "Harn", "value": 21, "unit": "mL/kg"}, {"measurement": "K^+", "value": 800, "unit": "µmol/kg"}, {"measurement": "Na^+", "value": 3100, "unit": "µmol/kg"}]}
